# Legend:
# [1] = tested on: neofollicle germs in the wound area; assay: Neofollicle germ formation after full thickness excision (FTE) in mice, counted by confocal imaging and AP staining; format: in vivo, C57BL6/J female mice
# Procedure: A study was conducted to assess the degree to which valproic acid could stimulate growth of new hair follicles by in mice when applied after a full thickness excision (FTE) procedure. FTE creates a zone of hair follicles that are 100% newly formed and removes noise from other clouding factors (e.g., migration of pre-existing follicles into the wound) (e.g., as described in Ito et. al., Nature, May 2007, “Wnt-dependent de novo hair follicle regeneration in adult mouse skin after wounding”, the contents of which is herein incorporated by reference in its entirety). The study was conducted with 2 arms (1) vehicle control and (2) 8.3% valproic acid; n=21 mice per arm). Valproic acid or placebo was applied twice daily for 4 days following scab detachment. The resulting data was analyzed and compared to a vehicle compound control cohort.
# Day-12 C57BL6/J female mice pups (Jackson Labs) were maintained in cages and fed a high fat diet until day of surgery. […] After 1 hour, the mice were injected with ketamine (70 mg/kg)-xylazine (8 mg/kg), assigned a Study ID, and weight was recorded. […]
# The degree of neofollicle germ formation was measured in the wound area, using imaging by confocal microscopy (confocal scanning laser microscope (CSLM) (VivaScope 1500, Lucid Inc., Rochester, N.Y., USA) and counting the number of early hair follicles developing underneath the surface of the skin. […]
# total hair counts = conditions: topical; male patients with androgenetic alopecia; Jo et al., Journal of Dermatology 2014; cited from earlier work
structure (smiles),measurement,setting,value
"CCCC(CCC)C(=O)O [Valproic Acid, 2-propylpentanoic acid]",Number of neofollicles versus FTE + vehicle treated controls (in words),"[1]; FTE + VPA 8.3% topical twice daily for 4 days, mice",strong trend indicating increased numbers of neofollicles
same,Mean count of neofollicles (Primary 1 + Primary 2 scoring categories),"[1]; FTE mice, 8.3% valproic acid in 50% ethanol/30% water/20% propylene glycol, topical 20 uL twice daily for 4 days after scab detachment, n=15, vehicle control 26.3 (n=21), one-tail P 0.066",37.1
same,Total hair count (in words),total hair counts,increase total hair counts
